The numbers were not newly measured in patent US6342520B1, “Locally injectable chemotherapeutics” (priority 2000, dated 2002), which cites them from elsewhere.

Each structure is given as a SMILES string.

For this data set the following is noted: Phase II clinical trials, administration by general circulation.

Turning to `CC(=O)OC[C@]12CCC(C)=C[C@H]1O[C@@H]1[C@H](O)[C@@H](OC(C)=O)[C@@]2(C)[C@]12CO2` [Anguidine], the hematologic toxicity entry is “considerable hematologic toxicity” and the “overall tumor response rate” value is listed as “low”.
